Experimental data as given in patent EP1100539B1, “COMBINATION OF ACTIVE SUBSTANCES, ESPECIALLY FOR THE PROPHYLAXIS AND THERAPY OF ISCHAEMIC ORGANIC LESIONS AND REPERFUSION SYNDROMES” (Vascular Biotech GmbH, priority 1998, dated 2000).
Values joined by “and” are separate entries in the source; they are usually repeats but may differ in a detail not shown here. Identical values can stand only once. “Also recorded” adds a separate entry of the source.

Key:
ischämische Herzschäden = conditions: oral, initial 100 mg, then 20-40 mg/d; 17187 Patienten; cited from earlier work
venoläre Endothelzellen = assay: Hydraulic conductivity (LP) across confluent venular endothelial cell layers on porous filters (Versuchsgruppe 2 / Beispiel 12); assay type: cell-based, Meerschweinchen
Source text: Als Studienobjekt dienten bis zur Konfluenz etablierte Schichten venolärer Endothelzellen auf porösen Filtern, die in einer speziell entwickelten Apparatur zur Trennung zweier Flüssigkeitskompartimente eingesetzt wurden. So konnte z. B. der druckabhängige Wassertransport (hydraulische Konduktivität = LP mit der Dimension 10^-5 cm / s / cm H2O) über die gezüchteten Endothelschichten unter dem Einfluß von Blutzellen unter entzündlichen Bedingungen studiert werden.
Details der Versuchsanordnung gehen aus den Abb. 1 und 2 hervor. Abbildung 1 zeigt ein wiederverwendbares, autoklavierbares Filterspannsystem bestehend aus (1) dem Formteil aus Polycarbonat, (2) dem Polycarbonatfilter, (3) dem stählernen Spannring und (4) dem Haltering aus Polycarbonat. Die Darstellung rechts neben dem Stapel der Einzelteile zeigt einen Querschnitt und eine Aufsicht des zusammengefügten Systems. Abbildung 2 zeigt eine Versuchsapparatur zur Messung hydraulischer Konduktivitäten von konfluenten Zellschichten, (1) Basisteil mit Magnetrührer (1a), (2) basales Flüssigkeitskompartiment mit Stopfen (2a) bzw. Zugang für Eppendorfpipetten (2b), (3) Steigrohr, (4) oberes Flüssigkeitskompartiment, zwischen den Flüssigkeitskompartimenten (2) und (4) liegt der ausgespannte Filter, (5), (6), (7) peristaltische Pumpen, (8) Vorratsgefäß für die Konstanthaltung des hydrostatischen Niveaus im oberen Flüssigkeitskompartiment, (9) Sammelgefäß für filtriertes Volumen.
Der Nachweis der Wirkung von Verbindungen als Hemmstoffe der Kontraktilität von venolären Endothelzellen erfolgt analog zur in Versuchsgruppe 2 charakterisierten Vorgehensweise unter Verwendung der dort beschriebenen Versuchsanordnung (vgl. Abb. 1 und 2) und wird hier am Beispiel des Apigenins (chemische Formel siehe Tabelle 1) dargestellt.
Venoläre Endothelzellen werden unter Verwendung einer speziellen, nachstehend beschriebenen Technik isoliert und auf porösen Polycarbonatfiltern (Porendurchmesser 0,4 µm, Fa. Nucleopore, Pleasanton, USA) unter Verwendung ebenfalls nachstehend beschriebener Zellkulturtechniken bis zur Konfluenz kultiviert. Diese endothelbeschichteten Filter werden in einer speziellen Apparatur (siehe Abb. 1 und 2) zur Trennung zweier Flüssigkeitskompartimente eingesetzt. Als Meßgröße für die Kontraktilität der venolären Endothelzellen dient der druckabhängige Wassertransport (hydraulische Konduktivität = LP mit der Dimension 10^-5 cm / s / cm H2O) über die gezüchteten Endothelschichten, der bei Kontraktion der Endothelzellen durch Übergang von der pflastersteinartigen zur sphärischen Form (vgl. Versuchsgruppe 3 mit Abb. 3 und 4) und die damit einhergehende Öffnung von Interzellularspalten zunimmt
Eine Lösung von Plasmasalzen (=physiologische Salzlösung, Zusammensetzung siehe unten) mit Zusatz von 0,1% Albumin und von aus peripherem Blut wie nachfolgend beschrieben isolierten Granulozyten (=PMN, Konzentration 10^5/ml) und Thrombozyten (10^6/ml) wird mit 1 µM FMLP und 1 U/ml Thrombin versetzt. Durch Zentrifugieren (10 min bei 1000 g) wird der Überstand gewonnen und in das obere Flüssigkeitskompartiment der Versuchsapparatur eingebracht. Dadurch erhöht sich - als Ausdruck der Kontraktion der venoiären Endothelzellen - die hydraulische Konduktivität gegenüber dem Ausgangswert (Nr. 1 in Tabelle 4) um ca. 1600 % (Nr. 10 in Tabelle 4).
Zur Dissoziation des Myokardgewebes werden zunächst mit Krebs-Henseleitlösung (KHL) nach Langendorff bei 120 mmHg 10 min perfundierte Meerschweinchenherzen 35 min lang mit einem in KHL angesetzten Proteasegemisch perfundiert (42 mg Kollagenase D + 60 mg Dispase II + 5 mg Trypsin + 58 mg Serumalbumin aus Rinderblut, gelöst in 42 ml Ca^2+-freier KHL; 1 ml/min; Kollagenase und Dispase: Boehringer, Mannheim, Trypsin: 1:250, Serva, Heidelberg). […]

Meerschweinchenherzen = assay: Working guinea pig heart, ischaemia/reperfusion with activated PMN and platelets (Versuchsgruppe 1); set-up: species or system Meerschweinchen; conditions: for Herzleistung [% der initialen Leistung] / Interstitielles Volumen / Koronarfluß [% des Basalflusses]: flavone derivative 3*10^-5 M, individual hearts
Experimental: Pathogene Wirkung von gleichzeitig aktivierten PMN und Thrombozyten im ischämischen Herzen. Als Studienobjekt dienten arbeitende, also Volumen gegen bestimmte Drucke auswerfende Meerschweinchenherzen. […] Thrombin, FMLP ([…]-Formyl-[…]) und […] Interaktion der Blutzellen mit dem koronaren Endothel bei diesen Versuchen. Tabelle 3: ^i Als Blutzellpräparate wurden eingesetzt: a) hochreine PMN (1-2*10^5/ml), […] Vorinkubation mit 100 μM […]) bzw. […] von PMN und TASS (bzw. T) in jeweils analogen Konzentrationen. Tabelle 3 gibt die unter […] bei […] von PMN und Thrombozyten (TASS = […] Vorinkubation mit 100μM […] = nicht […].

[1] = system: venolären Endothelzellen (VEC); assay: Time-lapse video microscopy of venular endothelial cell layers, opening/sealing of intercellular gaps (Versuchsgruppe 3); assay type: cell-based; conditions: for Abdichtung der Interzellularspalten: in presence of activated PMN and Thrombozyten (Abb. 3), 50 µM each
Experimental: In vitro kultivierte Schichten aus venolären Endothelzellen (VEC) werden unter Einsatz von Zeitraffervideomikrokinematographie (siehe Abb. 5) mit speziell entwickelter Methodik direkt beobachtet. Die durch aktivierte Thrombozyten (Anwendung von 1 U/ml Thrombin) und aktivierte PMN (Anwendung von 1 µM FMLP) induzierte Öffnung von Endothelbarrieren (= Öffnung der Interzellularspalten der Endothelzellen) kann so im Zeitablauf dokumentiert werden. Als Beispiel dient eine Serie von Aufnahmen, die den direkten Angriff der Blutzellen dokumentiert (Abb. 3) bzw. eine analoge Serie, die mit dem Überstand der aktivierten Blutzellen durchgeführt wurde (Abb. 4).
Die durch die Blutzellen zunächst geweiteten Interzellularspalten werden durch die Wirkstoffe wieder abgedichtet.
Abbildung 5 zeigt den experimentellen Aufbau für die videomikroskopische Beobachtung zellulärer Interaktionen an Endotheloberflächen: A-Gewebekulturmikroskop, B-Spezialinkubator mit Steuereinheit C, D-Gaszylinder mit 5% CO2, E-Waschflasche, F-Videokamera, G-Kamera-Kontroll-Einheit, H-Videorecorder, I-Monitor, J-Fotoapparat.

[2] = FMLP-activated PMN alone (Nr. 4-6), 50 µM
[3] = IPA + PMN (10^5/ml) + Thrombin (1 U/ml) + 1 µM FMLP, substance 50 µM, control without substance 5,40, baseline 1,80
[4] = IPA + supernatant of thrombin-activated Thrombozyten (10^6/ml) and FMLP-activated PMN (10^5/ml), substance 50 µM, control without substance 31,2, baseline 1,80
[5] = PMN+T (platelets not preincubated with Acetylsalicylsäure)
[6] = PMN+TASS (platelets preincubated 1 h with 100 µM Acetylsalicylsäure, washed)

| Structure (SMILES) | ischämische Herzschäden (ischämische Herzschäden) | Effect on increase of LP (venoläre Endothelzellen; [2]) | LP [10^-5 cm/s/cm H2O] (venoläre Endothelzellen; [3]) | LP [10^-5 cm/s/cm H2O] (venoläre Endothelzellen; [4]) | Verschlechterung der postischämischen Funktionsdaten (ΔP/Δt; interstitielles Volumen; Koronarfluß) (Meerschweinchenherzen; platelets preincubated with 100 µM Acetylsalicylsäure, no flavonoid) | Abdichtung der Interzellularspalten [1] | LP [10^-5 cm/s/cm H2O] (venoläre Endothelzellen; IPA + PMN (10^5/ml) + Thrombozyten (10^6/ml) + Thrombin (1 U/ml) + 1 µM FMLP, each substance 50 µM, control without substance 33,7, baseline 1,80) | Effect on increase of LP (venoläre Endothelzellen; simultaneously activated Thrombozyten and PMN (Nr. 7-9), 50 µM each) | Kontraktion der venolären Endothelzellen (hydraulische Konduktivität) (venoläre Endothelzellen; supernatant of activated PMN and Thrombozyten (Nr. 10, 11), 50 µM) | Herzleistung [% der initialen Leistung] (Meerschweinchenherzen; [5]) | Interstitielles Volumen (Meerschweinchenherzen; [5]) | Koronarfluß [% des Basalflusses] (Meerschweinchenherzen; [5]) | Herzleistung [% der initialen Leistung] (Meerschweinchenherzen; [6]) | Interstitielles Volumen (Meerschweinchenherzen; [6]) | Koronarfluß [% des Basalflusses] (Meerschweinchenherzen; [6]) | Verschlechterung der postischämischen Funktionsdaten (ΔP/Δt; interstitielles Volumen; Koronarfluß) (Meerschweinchenherzen; acute application of the flavonoid alone) | Verschlechterung der postischämischen Funktionsdaten (ΔP/Δt; interstitielles Volumen; Koronarfluß) (Meerschweinchenherzen; flavonoid applied in combination with Acetylsalicylsäure) | Abdichtung der Spalten / Reparatur der Endothelschicht ([1]; supernatant of activated PMN and Thrombozyten, blood cells absent (Abb. 4), without Acetylsalicylsäure) |
| --- | --- | --- | --- | --- | --- | --- | --- | --- | --- | --- | --- | --- | --- | --- | --- | --- | --- | --- |
| CC(=O)Oc1ccccc1C(=O)O [Acetylsalicylsäure, reference compound] | signifikant | keinen Effekt | 5,78 ±0,68 10^-5 cm/s/cm H2O | 28,2 ± 1,7 10^-5 cm/s/cm H2O | lediglich teilweisen Abschwächung | nicht zur Abdichtung der Interzellularspalten | – | – | – | – | – | – | – | – | – | – | – | – |
| O=c1cc(-c2ccc(O)cc2)oc2cc(O)cc(O)c12 [Apigenin] | – | keine Erhöhung von LP | 1,75 ± 0,06 10^-5 cm/s/cm H2O | 1,90 ± 0,07 10^-5 cm/s/cm H2O | – | – | 25,5 ± 4,1 10^-5 cm/s/cm H2O | hemmt diesen Effekt nur schwach | fast vollständig gehemmt | 52 % der initialen Leistung and 67 % der initialen Leistung and 74 % der initialen Leistung and 73 % der initialen Leistung and 64 % der initialen Leistung and 71 % der initialen Leistung | 142 µL/g and 201 µL/g and 177 µL/g and 166 µL/g and 130 µL/g | 56 % des Basalflusses (2×) and 49 % des Basalflusses and 53 % des Basalflusses and 59 % des Basalflusses and 65 % des Basalflusses | 94 % der initialen Leistung and 96 % der initialen Leistung and 89 % der initialen Leistung and 88 % der initialen Leistung and 97 % der initialen Leistung | 95 µL/g and 120 µL/g and 105 µL/g and 102 µL/g and 97 µL/g and 91 µL/g | 102 % des Basalflusses and 107 % des Basalflusses and 98 % des Basalflusses and 95 % des Basalflusses and 91 % des Basalflusses and 109 % des Basalflusses | abgeschwächt | vollständig aufgehoben | – |
| C[C@@H]1O[C@@H](OC[C@H]2O[C@@H](Oc3c(-c4ccc(OCCO)c(OCCO)c4)oc4cc(OCCO)cc(O)c4c3=O)[C@H](O)[C@@H](O)[C@@H]2O)[C@H](O)[C@H](O)[C@H]1O [Trihydroxyethylrutosid] | – | – | – | – | – | nicht zur Abdichtung der Interzellularspalten | – | – | – | – | – | – | – | – | – | – | – | fast vollständige Reparatur der Endothelschicht; also recorded: Endothel-reparativen Effekt |
